In ChEMBL document CHEMBL2163242, “Development of anti-coxsackievirus agents targeting 3C protease” (Bioorg Med Chem Lett, 2012):
pIC50: −log10 of the molar value.

Columns and labels:
[1] = tested on: Coxsackievirus B3; assay: Antiviral activity against Coxsackievirus B3 H3 infected in HeLa-UVM cells assessed as host cell viability at 1 uM after 6 to 24 hrs by CCK8 assay; format: functional
[2] = molecular target: Genome polyprotein (Coxsackievirus B3 (strain Nancy), UniProt P03313); assay: Inhibition of Coxsackievirus B3 protease 3c using NMA-EALFQGPPVK-DNP as substrate incubated for 5 mins prior to substrate addition measured after 1 hr by FRET assay
Chain of Genome polyprotein (P03313 1541-1723 limits assumed): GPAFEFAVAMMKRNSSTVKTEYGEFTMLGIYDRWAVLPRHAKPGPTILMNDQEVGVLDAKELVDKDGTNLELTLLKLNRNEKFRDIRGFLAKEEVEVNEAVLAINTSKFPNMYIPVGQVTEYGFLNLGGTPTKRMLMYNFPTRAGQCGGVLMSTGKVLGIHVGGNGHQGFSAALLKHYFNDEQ

[3] = tested on: Coxsackievirus B3; assay: Antiviral activity against Coxsackievirus B3 H3 infected in HeLa-UVM cells assessed as host cell viability at 0.5 uM after 6 to 24 hrs by CCK8 assay; format: functional
[4] = molecular target: Genome polyprotein (Coxsackievirus B3 (strain Nancy)) (UniProt P03313); assay: Inhibition of Coxsackievirus B3 protease 3c using NMA-EALFQGPPVK-DNP as substrate at 10 uM incubated for 5 mins prior to substrate addition measured after 1 hr by FRET assay
Chain of Genome polyprotein (Coxsackievirus B3 (strain Nancy)) (P03313 whole entry): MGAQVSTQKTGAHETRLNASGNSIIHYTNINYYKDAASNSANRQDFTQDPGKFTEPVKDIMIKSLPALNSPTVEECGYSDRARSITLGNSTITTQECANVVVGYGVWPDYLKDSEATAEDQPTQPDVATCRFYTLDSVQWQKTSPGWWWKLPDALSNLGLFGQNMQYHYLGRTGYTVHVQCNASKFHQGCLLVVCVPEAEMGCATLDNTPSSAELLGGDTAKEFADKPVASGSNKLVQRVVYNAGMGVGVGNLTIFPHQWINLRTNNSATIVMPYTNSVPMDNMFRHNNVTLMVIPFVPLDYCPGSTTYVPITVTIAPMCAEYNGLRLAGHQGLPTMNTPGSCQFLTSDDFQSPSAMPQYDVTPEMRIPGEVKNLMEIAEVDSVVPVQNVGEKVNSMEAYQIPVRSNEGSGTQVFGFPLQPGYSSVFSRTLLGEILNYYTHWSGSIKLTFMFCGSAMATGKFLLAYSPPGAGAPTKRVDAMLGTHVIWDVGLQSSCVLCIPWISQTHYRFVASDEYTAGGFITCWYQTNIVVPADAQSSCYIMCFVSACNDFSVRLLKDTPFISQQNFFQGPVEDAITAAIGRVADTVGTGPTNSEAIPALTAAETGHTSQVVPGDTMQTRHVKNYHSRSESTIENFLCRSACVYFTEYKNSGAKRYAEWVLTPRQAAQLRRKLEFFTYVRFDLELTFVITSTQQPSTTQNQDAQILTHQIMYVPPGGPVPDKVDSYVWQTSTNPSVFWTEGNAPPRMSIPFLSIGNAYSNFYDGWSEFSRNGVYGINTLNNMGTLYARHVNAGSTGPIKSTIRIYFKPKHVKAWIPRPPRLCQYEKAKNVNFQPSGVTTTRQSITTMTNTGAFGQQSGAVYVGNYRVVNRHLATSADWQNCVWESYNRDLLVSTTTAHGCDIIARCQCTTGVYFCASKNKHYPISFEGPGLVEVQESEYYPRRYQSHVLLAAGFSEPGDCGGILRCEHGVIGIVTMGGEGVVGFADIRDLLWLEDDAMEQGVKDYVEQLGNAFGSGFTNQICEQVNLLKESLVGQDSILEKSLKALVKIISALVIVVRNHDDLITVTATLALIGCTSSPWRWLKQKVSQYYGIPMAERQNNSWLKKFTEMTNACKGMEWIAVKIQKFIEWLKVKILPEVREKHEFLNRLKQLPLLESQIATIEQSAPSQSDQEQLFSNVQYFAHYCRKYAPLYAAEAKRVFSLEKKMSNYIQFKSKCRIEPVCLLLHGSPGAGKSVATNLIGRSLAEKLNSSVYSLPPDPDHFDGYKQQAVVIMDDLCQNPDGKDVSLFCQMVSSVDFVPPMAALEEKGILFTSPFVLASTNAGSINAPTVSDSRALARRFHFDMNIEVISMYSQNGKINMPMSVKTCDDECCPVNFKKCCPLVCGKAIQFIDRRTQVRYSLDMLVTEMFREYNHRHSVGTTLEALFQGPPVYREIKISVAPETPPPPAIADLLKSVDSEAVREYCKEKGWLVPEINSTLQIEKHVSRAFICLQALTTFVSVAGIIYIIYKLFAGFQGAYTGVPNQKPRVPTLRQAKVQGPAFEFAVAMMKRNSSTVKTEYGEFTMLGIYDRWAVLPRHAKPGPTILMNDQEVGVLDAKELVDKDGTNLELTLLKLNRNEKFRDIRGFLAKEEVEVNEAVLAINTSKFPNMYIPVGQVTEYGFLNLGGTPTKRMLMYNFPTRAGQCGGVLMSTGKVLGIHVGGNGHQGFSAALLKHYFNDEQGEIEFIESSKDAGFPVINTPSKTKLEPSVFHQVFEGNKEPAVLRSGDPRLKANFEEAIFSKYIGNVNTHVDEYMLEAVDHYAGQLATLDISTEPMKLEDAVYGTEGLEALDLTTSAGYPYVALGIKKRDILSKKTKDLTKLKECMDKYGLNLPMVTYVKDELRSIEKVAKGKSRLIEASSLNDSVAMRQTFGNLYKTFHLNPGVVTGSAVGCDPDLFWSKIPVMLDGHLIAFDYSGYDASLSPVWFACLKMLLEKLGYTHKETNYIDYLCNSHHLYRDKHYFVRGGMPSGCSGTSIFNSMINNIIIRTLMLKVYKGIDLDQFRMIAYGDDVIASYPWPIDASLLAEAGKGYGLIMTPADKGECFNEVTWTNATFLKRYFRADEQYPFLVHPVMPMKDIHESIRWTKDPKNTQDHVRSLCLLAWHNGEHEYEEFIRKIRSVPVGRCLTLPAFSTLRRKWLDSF

[5] = Aqueous solubility of the compound by HPLC analysis; format: physicochemical; details: buffer

Cc1cc(C(=O)N[C@H](C(=O)N[C@@H](Cc2ccc(F)cc2)C(=O)N[C@@H](/C=C/C(=O)OCc2ccc3cnccc3c2)CCC(N)=O)C(C)C)no1 showed an Activity [1] of 50% and a pIC50 [2] of 6.62.
Compound Cc1cc(C(=O)N[C@H](C(=O)N[C@@H](Cc2ccc(F)cc2)C(=O)N[C@@H](/C=C/C(=O)OCc2nc3cc(Cl)ccc3[nH]2)CCC(N)=O)C(C)C)no1 has an Activity [1] of 50% and a pIC50 [2] of 6.19.
Work on Cc1cc(C(=O)N[C@H](C(=O)N[C@@H](Cc2ccc(F)cc2)C(=O)N[C@@H](/C=C/C(=O)OCc2cccc3cnccc23)CCC(N)=O)C(C)C)no1 yielded an Activity [1] of 50% and a pIC50 [2] of 6.57.
Cc1cc(C(=O)N[C@H](C(=O)N[C@@H](Cc2ccc(F)cc2)C(=O)N[C@@H](/C=C/C(=O)OCc2cn3cccc(C)c3n2)CCC(N)=O)C(C)C)no1 showed an Activity [1] of 50% and a pIC50 [2] of 6.77.
Cc1cc(C(=O)N[C@H](C(=O)N[C@@H](Cc2ccc(F)cc2)C(=O)N[C@@H](/C=C/C(=O)OCc2nc3ccccc3[nH]2)CCC(N)=O)C(C)C)no1 gave an Activity [1] of 50% and a pIC50 [2] of 6.62.
Cc1cc(C(=O)N[C@H](C(=O)N[C@@H](Cc2ccc(F)cc2)C(=O)N[C@@H](/C=C/C(=O)OCc2ccc3ccccc3c2)CCC(N)=O)C(C)C)no1 showed an Activity [1] of 50% and a pIC50 [2] of 6.39.
Cc1cc(C(=O)N[C@H](C(=O)N[C@@H](Cc2ccc(F)cc2)C(=O)N[C@@H](/C=C/C(=O)OCc2cnc3ccccc3c2)CCC(N)=O)C(C)C)no1 gave an Activity [1] of 50%, a pIC50 [2] of 6.60 and an Activity [3] of 50%.
For Cc1cc(C(=O)N[C@H](C(=O)N[C@@H](Cc2ccc(F)cc2)C(=O)N[C@@H](/C=C/C(=O)OCc2nc(-c3ccncc3)no2)CCC(N)=O)C(C)C)no1, the Activity [1] was 50% and the pIC50 [2] was 6.19.
Work on Cc1cc(C(=O)N[C@H](C(=O)N[C@@H](Cc2ccc(F)cc2)C(=O)N[C@@H](/C=C/C(=O)OCc2ccc3nc[nH]c3c2)CCC(N)=O)C(C)C)no1 yielded an Activity [1] of 50% and a pIC50 [2] of 6.33.
For Cc1cc(C(=O)N[C@H](C(=O)N[C@@H](Cc2ccc(F)cc2)C(=O)N[C@@H](/C=C/C(=O)OCc2ccnc3ccccc23)CCC(N)=O)C(C)C)no1, the Activity [1] was 50%, the pIC50 [2] was 6.89 and the Activity [3] was 50%.
For Cc1cc(C(=O)N[C@H](C(=O)N[C@@H](Cc2ccc(F)cc2)C(=O)O)C(C)C)no1, the inhibition [4] was 33.5%.
In the case of Cc1cc(C(=O)N[C@H](C(=O)N[C@@H](Cc2ccc(F)cc2)C(=O)N[C@@H](/C=C/C(=O)OCc2cccc3ncccc23)CCC(N)=O)C(C)C)no1, the Activity [1] was 50% and the pIC50 [2] was 6.55.
With Cc1cc(C(=O)N[C@H](C(=O)N[C@@H](Cc2ccc(F)cc2)C(=O)N[C@@H](/C=C/C(=O)OCc2ccc3cn[nH]c3c2)CCC(N)=O)C(C)C)no1 the Activity [1] was 50% and the pIC50 [2] was 6.41.
In the case of Cc1cc(C(=O)N[C@H](C(=O)N[C@@H](Cc2ccc(F)cc2)C(=O)N[C@@H](/C=C/C(=O)OCc2cn3c(C)cccc3n2)CCC(N)=O)C(C)C)no1, the Activity [1] was 50% and the pIC50 [2] was 6.80.
In the case of Cc1cc(C(=O)N[C@H](C(=O)N[C@@H](Cc2ccc(F)cc2)C(=O)N[C@@H](/C=C/C(=O)OCc2ccc3[nH]ncc3c2)CCC(N)=O)C(C)C)no1.Cl, the solubility [5] was “soluble”.
Cc1cc(C(=O)N[C@H](C(=O)N[C@@H](Cc2ccc(F)cc2)C(=O)N[C@@H](/C=C/C(=O)OCc2ccc3[nH]ncc3c2)CCC(N)=O)C(C)C)no1 showed an Activity [1] of 50% and a pIC50 [2] of 6.74.
